According to US20230293451A1, “STIMULATION OF HAIR GROWTH” (The General Hospital Corporation, priority 2020, published 2023):
“Also recorded” adds a separate entry of the source.

Experiments:
[1] = system: mouse skin with hair follicles arrested in telogen; assay: Topical administration of novel compounds to pre-sensitized mice (Example 2); type: in vivo, C57BL/6 mice; settings: pre-sensitized with 2% on chest; 2% topical on days 3, 5 and 7; images day 17
Text: In order to compare the effect of SABDE, CF3-SABDE or CC1-SABDE (see FIG. 2a) on hair growth, 3 female C57BL/6 mice, 8 weeks old, were pre-sensitized with 2% of each compound on the chest 4 days before the first treatment and both flanks were shaved (Day 0). On days 3, 5, and 7, 2% of SABDE, CF3-SABDE or CC1-SABDE was topically administered to the shaved left flank of one mouse each using a cotton-tipped applicator. Images were taken on day 17 in order to visualize hair growth and inflammation (see FIGS. 2B and 2C).

[2] = system: mouse skin with hair follicles arrested in telogen; assay: Comparison of 100 mM SADBE and CF3-SADBE topical treatment (Examples 3 and 5); type: in vivo, C57BL/6 mice; settings: 100 mM topical; for visible anagen: by day 10; for anagen induction / visible inflammation: by day 14; for hair growth on the treated flank: by day 17
Text: (§1) To measure the effect of SABDE and DPCP (see FIG. 1a) on hair growth, 6 female C57BL/6 mice, 8 weeks old, were shaved on both flanks 4 days before topical administration of the compounds (Day −4). During this period, the mice were visually monitored to confirm absence of hair growth and to confirm the entire shaved area is arrested in the telogen phase as expected from 8 weeks old mice. On the day of administration (day 0), 2% SABDE or 2% DCPC was topically administered to the shaved left flank of 3 mice each using a cotton-tipped applicator (see FIG. 1B). Images were taken on day 9 and day 16 in order to visualize hair growth and inflammation (see FIG. 1c). Skin pigmentation intensity was quantified by ImageJ. The anagen induction index is calculated as the change in skin pigmentation intensity (a marker of anagen) on the treated side relative to (i.e., as a percent of) the untreated side (see FIG. 1d).
(§2) The anagen induction index can be determined by any methods known in the art, including, for example, histological methods (e.g., H&E, other stains, or without stains) and/or other visual morphology methods. (e.g., methods to measure the biological parameters of hair growth. This value is then normalized to the specific experiment (individual mice) and shown as relative anagen induction by skin pigmentation intensity (a marker of anagen) on the treated side as a percent of the baseline untreated side. Analysis of the anagen (or other phases) can be performed by any method known in the art, including, e.g., a tissue biopsy and/or morphological analysis.
(§3) Inflammation can be measured by known methods such as histological grading, visual identification, and quantification of lesions. The number, size, and extent of the cutaneous lesions present (e.g., see blue * in FIG. 3a) can be visualized and quantified using any known method in the art, including, for example, histological methods (e.g., H&E, other stains, or without stains) and/or other visual morphology methods.
The effects of a topical treatment dose of SADBE or CF3-SADBE were measured using the methods describe in Example 1. In FIG. 3, the topical treatment dose used was 50 uL of 100 mM SADBE or CF3-SADBE.
The effects on anagen induction and inflammation of topical treatment with CF3-SADBE at 100 mM were measured and visualized using the methods described in Example 1.

[3] = system: resting telogen hair follicles; assay: Induction of anagen phase by CF3-SADBE, H&E staining of treated skin (Example 4); type: in vivo, mouse; settings: 100 uL of 100 mM on left flank; right flank untreated
Text: as §1
The effects of a topical treatment dose of CF3-SADBE was measured and visualized using the methods described in Example 1. The gross appearance of the mouse treated with CF3-SADBE was imaged (see FIG. 4a). CF3-SADBE was administered on the left flank at a dose of 100 uL of 100 mM CF3-SADBE (see FIG. 4B). The right flank was left untreated (see FIG. 4C).

[4] = system: hair growth in shaved mice; assay: Hair growth in animal models after topical delivery of hapten derivatives (general statements); type: in vivo
[5] = system: mouse skin with hair follicles arrested in telogen; assay: Topical administration of SADBE and DPCP to shaved flank of mice (Example 1); type: in vivo, C57BL/6 mice; settings: for induction of anagen and hair growth: 2% topical, single administration day 0 to shaved left flank, images day 9 and day 16; for hair growth in a mammal without an autoimmune disease: mouse, in vivo
Text: as §1, §2, §3

SMILES | anagen and hair growth [1] | inflammation [1] | visible anagen [2] | anagen induction [2] | visible inflammation [2] | hair growth on the treated flank [2] | hair follicle phase in treated skin (H&E staining) [3] | efficacy as measured by time of anagen induction [4] | inflammation relative to known treatments [4] | hair growth promoting activity ([4]; animal models, after prior shaving) | induction of anagen and hair growth [5] | hair growth in a mammal without an autoimmune disease [5]
O=c1c(OCCCCCl)c(OCCCCCl)c1=O [CC1-SABDE] | neither produced inflammation nor anagen and hair growth | neither produced inflammation nor anagen and hair growth | – | – | – | – | – | – | – | – | – | –
O=c1c(OCCCC(F)(F)F)c(OCCCC(F)(F)F)c1=O [CF3-SADBE, squaric acid di(trifluromethyl)propyl ester] | induce anagen and hair growth at least as efficiently as SADBE | less inflammation | induced visible anagen | induces anagen | much less visible inflammation | Robust hair growth | hair follicles in anagen | earlier induction of anagen | less inflammation than known treatments; also recorded: somewhat diminished inflammation | accelerated hair growth relative to known treatments | – | –
O=c1c(-c2ccccc2)c1-c1ccccc1 [DPCP, diphenylcyclopropenone] | – | – | – | – | – | – | – | – | – | – | induction of anagen and hair growth | increased hair growth
CCCCOc1c(OCCCC)c(=O)c1=O [SADBE] | – | inflammation in the SADBE treated flank | does not; also recorded: did not induce visible anagen | induces anagen | substantial inflammation; also recorded: more visible inflammation | Robust hair growth | – | – | – | – | induction of anagen and hair growth | increased (e.g., promoted) hair growth
